In series [1] the test system is HKE3 human colon carcinoma cell line. As to the kind of experiment: In vitro growth inhibition of colon carcinoma cells, HKE3 (CellTiter-Glo). Format: cell-based. The settings on record: 72 hours incubation. (ATP-based viability assays read luminescence as a measure of living cells.)
The test system of series [2] is HCT-116 human colon carcinoma cell line. As to the kind of experiment: In vitro growth inhibition of colon carcinoma cells, HCT-116 (CellTiter-Glo). In kind it is cell-based. The settings on record: 72 hours incubation, read-out: HCT116 EC50.
Series [3] deals with A549 human lung carcinoma cells. Description: Cell-based EC50 determination, A549 cells (CellTiter-Glo cell viability). Particulars: A549, 24 h, read-out: A549 EC50 24h. The method, then:
A549 human lung carcinoma cells were cultured in RPMI 1640 medium (Sigma) supplemented with 10% fetal bovine serum (Sigma) and Antibiotic-Antimycotic (Sigma) in tissue culture flasks at 37°C in a humidified 5% CO2 atmosphere. Cells were routinely assayed for mycoplasma contamination.
Two thousand cells were plated in 384-well tissue culture plates, and treated after 24 hours with a 10-point dilution series of the compounds (1.5 nM-30 uM), using the vehicle, DMSO as control. Cells were incubated for 24 hours after which the relative cell density was determined by CellTiter-Glo Luminescent Cell Viability Assay (Promega). This method determines the number of metabolically active cells in the culture based on quantitation of the ATP present. The luminescent signal was measured with an Analyst GT multimode reader (Molecular Devices). […]

Series [4] relates to H1 N1 influenza virus strain A/WSN/33. Description: microbe, parasite or virus in culture. In kind it is cell-based. The settings on record: 36 h, read-out: Influenza replication IC50.
For another series, the target named is human Akt1 kinase (Homo sapiens, UniProt P31749). As to the kind of experiment: In vitro Akt1 assay (IMAP fluorescence polarization, phosphorylation of TAMRA-peptide). Particulars: 40 µM ATP; for inhibition at 12.5 µM: 12.5 uM compound, read-out: Akt1 inh% @12.5 uM. Format: biochemical. The method, then: The inhibition of Akt1 by the compounds described in the present invention were determined measuring the phosphorylation of a fluorescently-labeled peptide (TAMRA-peptide) by human Akt1 kinase by fluorescent polarization using a commercially available IMAP Screening Express Assay Kit (Molecular Devices).
Akt1 kinase assays were performed in low protein binding 384-well plates (Corning). Test compounds were diluted in 100% DMSO to 5 mM stock concentration and then further dilutions were made in H2O or 100% DMSO to desirable concentrations.
Each reaction consisted of 5 nM enzyme: Akt1 kinase, 400 nM TAMRA-peptide (5-TAMRA-GRTGRRNSI-COOH; Genecust), 40 µM ATP and kinase buffer: 20 mM MES pH6, 1 mM DTT, 10 mM MgCl2, 2 mM MnCl2, 0.01 V/V% TritonX (all reagents from Sigma-Aldrich).
For each reaction, 4 or 6 µl containing TAMRA-peptide, ATP and kinase buffer were combined with 2 µl diluted compound in H2O or 0.02 µl compound in 100% DMSO. The kinase reaction was started by the addition of 2 µl diluted enzyme. The reaction was allowed to run for 1 hour at room temperature. The reaction was stopped by adding 15 µl IMAP beads (1:400 beads in progressive (75% buffer A, 25% buffer B) 1x buffer). After an additional hour, fluorescent polarization (Ex: 550-10 nm, Em: 590-10 nm, Dich: 561 nm) was measured using an Analyst GT (Molecular Devices).

The next series concerns the target human Ack1 kinase (Homo sapiens, UniProt Q07912). Description: In vitro Ack1 assay (TranScreener ADP2 FP, generation of ADP). Format: biochemical. The settings on record: 12.5 uM compound; 3.5 µM ATP; read-out: Ack1 inh% @12.5 uM. The method, then: The activity of the compounds described in the present invention can be determined by the following kinase assay, which measures the generation of ADP by human Ack1 kinase by fluorescent polarization using a commercially available TranScreener ADP2 FP Assay Kit (BellBrook Labs).
Ack1 kinase assays were performed in low protein binding 384-well plates (Corning). Test compounds were diluted in 100% DMSO to 5 mM stock concentration and then further dilutions were made in H2O or 100% DMSO to desirable concentrations.
Each reaction consisted of 5 nM enzyme: Ack1 kinase, Poly Glu-Tyr (4:1) (Sigma), 3.5 µM ATP and kinase buffer: 20 mM HEPES pH7.5, 1 mM DTT, 2 mM MgCl2, 0.4 mM MnCl2, 0.01 V/V% Tween20 (all reagents from Sigma-Aldrich)
For each reaction, 4 or 6 µl containing Poly Glu-Tyr (4:1), ATP and kinase buffer were combined with 2 µl diluted compound in H2O or 0.02 µl compound in 100% DMSO. The kinase reaction was started by the addition of 2 µl diluted enzyme. The reaction was allowed to run for 1 hour at room temperature. The reaction was stopped by addition of 8 µl ADP detection mixture (1 x) (1 x Detection buffer + 4.78 µg/ml ADP2 Ab + 4 nM ADP Alexa633 Tracer). After an additional hour, fluorescent polarization (Ex: 630-35 nm, Em: 680-30 nm, Dich: 650 nm) was measured using an Analyst GT (Molecular Devices).

A further series in a line: physchem. Particulars: kinetic from dmso stock. In kind it is physicochemical. As for the experimental part:
Samples were diluted in DMSO (control), phosphate buffer pH = 7.4 and pH = 2.0, from 5mM stock solutions (solved in DMSO), with a 120 µM final concentration. The samples were incubated for 24 hours at room temperature followed by 30 minutes centrifugation at 3700 rpm. 40 µl of the supernatants were injected into HPLC (Waters 2795 Alliance HPLC equipped with Waters 996 PDA Detector (HPLC column: Waters XBridge, RP C18, 3.5 µm, 4.6 mm x 50 mm; gradient MeCN/H2O, containing 0.1% HCOOH: 5% MeCN (0.5 min), 5% to 95% MeCN (5 min), 95% MeCN (0.5 min); flow rate: 2.0 ml/min)) and the AUC values (measured on sample specific wavelength) of the buffered samples were divided by the AUC values (same wavelength as buffered samples') of the DMSO control samples. Table 3: Solubility in water for several compounds according to general formula (I)

Series [5] concerns HepG2 hepatoblastomaderived cell line. As to the kind of experiment: In vitro growth inhibition, HepG2 (CellTiter-Glo). In kind it is cell-based. Particulars: Homo sapiens, 72 hours incubation.
For another series, the target named is T1, human Clk1 kinase (Homo sapiens, UniProt P49759).
T1 construct: Each reaction consisted of 4 nM enzyme: Clk1 kinase domain
As to the kind of experiment: In vitro Clk1 assay (IMAP fluorescence polarization). In kind it is biochemical. Particulars: 0.45 µM ATP. The method, then:
The activity of the compounds described in the present invention can be determined by the following kinase assay, which measures the phosphorylation of a fluorescently-labeled peptide by human Clk1 kinase by fluorescent polarization using a commercially available IMAP Screening Express Assay Kit (Molecular Devices).
Clk1 kinase assays were performed in low protein binding 384-well plates (Corning). Test compounds were diluted in 100% DMSO to 5 mM stock concentration and then further dilutions were made in H2O or 100% DMSO to desirable concentrations.
Each reaction consisted of 4 nM enzyme: Clk1 kinase domain, 400 nM TAMRA-AFRREWSPGKEAKK-NH2 (Genecust), 0.45 µM ATP (Sigma) and kinase buffer: 20 mM TRIS pH 8, 1 mM DTT, 0.4 mM MgCl2, 0.4 mM MnCl2, 0.01 V/V% Tween20 (all reagents from Sigma-Aldrich)
For each reaction, 4 or 6 µl containing TAMRA-peptide, ATP and kinase buffer were combined with 2 µl diluted compound in H2O or 0.02 µl compound in 100% DMSO. The kinase reaction was started by the addition of 2 µl diluted enzyme. The reaction was allowed to run for 1 hour at room temperature. The reaction was stopped by adding 15 µl IMAP beads (1:600 beads in progressive (80 % buffer A, 20% buffer B) 1x buffer). After an additional hour, fluorescent polarization (Ex: 550-10 nm, Em: 590-10 nm, Dich: 561 nm) was measured using an Analyst GT (Molecular Devices).
For orientation: Fluorescence polarisation rises when a labelled molecule tumbles more slowly, as on binding a larger partner.

pEC50, pIC50: −log10 of the molar value. ≈ marks a conversion by molar mass, not a printed value.

A word on the pEC50: it is the EC50 on a negative log10 scale, so that one unit is a factor of ten. What is called pIC50 is the negative decadic logarithm of the IC50, by convention in mol/L. The solubility is how much of the substance goes into solution per volume. A lower solubility goes with little dissolved substance.

Sequence of human Ack1 kinase (Q07912 whole entry): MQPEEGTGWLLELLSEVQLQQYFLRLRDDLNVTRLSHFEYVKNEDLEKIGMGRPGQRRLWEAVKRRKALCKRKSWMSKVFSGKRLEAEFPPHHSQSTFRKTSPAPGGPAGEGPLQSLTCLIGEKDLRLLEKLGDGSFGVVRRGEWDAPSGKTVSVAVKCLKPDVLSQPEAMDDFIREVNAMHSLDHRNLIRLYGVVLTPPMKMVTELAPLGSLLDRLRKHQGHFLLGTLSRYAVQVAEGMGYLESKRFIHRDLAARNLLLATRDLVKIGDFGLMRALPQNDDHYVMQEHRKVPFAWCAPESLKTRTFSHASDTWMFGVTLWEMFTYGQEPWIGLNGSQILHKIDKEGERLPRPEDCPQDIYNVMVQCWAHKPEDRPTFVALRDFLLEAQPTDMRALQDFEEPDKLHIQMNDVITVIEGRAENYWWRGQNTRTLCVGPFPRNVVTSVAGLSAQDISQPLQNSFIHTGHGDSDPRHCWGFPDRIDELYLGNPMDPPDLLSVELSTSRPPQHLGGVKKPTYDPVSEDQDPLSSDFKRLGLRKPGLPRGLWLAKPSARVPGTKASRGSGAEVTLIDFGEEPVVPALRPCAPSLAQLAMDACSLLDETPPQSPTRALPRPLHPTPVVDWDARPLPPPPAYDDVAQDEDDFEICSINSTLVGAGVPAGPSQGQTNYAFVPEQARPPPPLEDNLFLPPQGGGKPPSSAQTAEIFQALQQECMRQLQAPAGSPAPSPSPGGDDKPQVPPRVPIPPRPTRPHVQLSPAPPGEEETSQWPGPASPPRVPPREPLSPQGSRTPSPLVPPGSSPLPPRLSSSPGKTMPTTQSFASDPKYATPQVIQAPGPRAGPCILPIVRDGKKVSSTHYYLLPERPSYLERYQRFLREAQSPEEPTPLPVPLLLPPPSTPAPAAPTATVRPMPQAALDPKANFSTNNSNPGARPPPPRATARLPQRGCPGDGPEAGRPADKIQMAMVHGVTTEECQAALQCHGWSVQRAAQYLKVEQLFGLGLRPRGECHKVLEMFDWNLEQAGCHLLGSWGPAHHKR
Sequence of human Akt1 kinase (P31749 whole entry): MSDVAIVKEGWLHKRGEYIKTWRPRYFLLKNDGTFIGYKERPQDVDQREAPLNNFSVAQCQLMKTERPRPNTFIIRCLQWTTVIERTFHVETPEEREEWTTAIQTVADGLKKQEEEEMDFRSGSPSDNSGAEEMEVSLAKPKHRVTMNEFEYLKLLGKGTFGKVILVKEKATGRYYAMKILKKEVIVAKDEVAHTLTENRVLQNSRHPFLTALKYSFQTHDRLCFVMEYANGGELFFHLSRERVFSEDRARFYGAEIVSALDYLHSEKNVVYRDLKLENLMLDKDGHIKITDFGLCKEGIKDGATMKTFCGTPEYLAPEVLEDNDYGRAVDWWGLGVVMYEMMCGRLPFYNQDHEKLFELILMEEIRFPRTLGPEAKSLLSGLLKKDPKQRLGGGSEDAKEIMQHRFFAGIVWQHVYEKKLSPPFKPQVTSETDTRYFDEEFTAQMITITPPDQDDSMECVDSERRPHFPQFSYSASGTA
T1 sequence (P49759 161-477 limits assumed): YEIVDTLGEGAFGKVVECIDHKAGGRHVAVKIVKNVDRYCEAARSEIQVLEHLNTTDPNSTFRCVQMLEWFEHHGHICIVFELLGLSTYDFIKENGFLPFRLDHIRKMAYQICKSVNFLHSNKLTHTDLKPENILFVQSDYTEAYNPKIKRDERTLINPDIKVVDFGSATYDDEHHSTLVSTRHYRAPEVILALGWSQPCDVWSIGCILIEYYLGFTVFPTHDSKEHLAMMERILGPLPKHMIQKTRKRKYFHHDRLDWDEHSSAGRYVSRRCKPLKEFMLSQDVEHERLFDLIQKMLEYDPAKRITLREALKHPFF

As for `CC[C@@H](NC(=O)c1ccc2c(c1)/C(=C(/Nc1cccc(CN3CCCCC3)c1)c1ccccc1)C(=O)N2)c1ccccc1` [Compound 12, (3Z)-2-oxo-3-(phenyl{[3-(piperidin-1-ylmethyl)phenyl]amino}methylene)-N-[(1R)-1-phenylpropyl]indoline-5-carboxamide], the pEC50 in series [1] was 7.70; in series [2], 7.52; in series [3] it was 5.16; in [5], 5.45. In addition, the values for the negative logarithm of the IC50 (pIC50) (in [4]; against human Akt1 kinase; at human Clk1 kinase) were 8.00, 5.10 and 6.68, respectively. In addition, the inhibition at 12.5 µM on human Akt1 kinase was found to be 75.1%; on human Ack1 kinase it was 18.1%. Besides, the solubility at 24 h in the series “physchem” (pH 2, aqueous buffer) was 110 to 120 µM (≈ 62.8 to 68.5 µg/mL); in the series “physchem” (pH 7.4, aqueous buffer) it was under 10 µM.

As for `C[C@@H](NC(=O)c1ccc2c(c1)/C(=C(/Nc1cccc(CN3CCCCC3)c1)c1ccccc1)C(=O)N2)c1ccccc1` [Compound 13, (3Z)-2-oxo-N-[(1R)-1-phenylethyl]-3-(phenyl{[3-(piperidin-1-ylmethyl)phenyl]amino}methylene)indoline-5-carboxamide], the pEC50 in series [1] is 6.85; in series [2], 6.77; in series [3], 5.03; in series [5] it was 5.25. In addition, the figures for the pIC50 (in series [4]; on human Akt1 kinase; on human Clk1 kinase) were 6.80, 5.23 and 7.52, respectively. Besides, the values for the inhibition at 12.5 µM at human Akt1 kinase and on human Ack1 kinase were 60.6% and 13.7%, respectively. Besides, the solubility at 24 h is 110 to 120 µM (≈ 61.2 to 66.8 µg/mL) in “physchem” (pH 2, aqueous buffer) and under 10 µM in “physchem” (pH 7.4, aqueous buffer).

As for `CC[C@@H](NC(=O)c1ccc2c(c1)/C(=C(/Nc1ccc(CN3CCCCC3)cc1)c1ccccc1)C(=O)N2)c1ccccc1` [Compound 18, (3Z)-2-oxo-3-(phenyl{[4-(piperidin-1-ylmethyl)phenyl]amino}methylene)-N-[(1R)-1-phenylpropyl]indoline-5-carboxamide], the negative-log EC50 (pEC50) in [1] was 8.40; in [2] it was 8.00; in series [3], under 4.52; in series [5], 6.51. For the same compound, the negative-log IC50 (pIC50) is over 8.00 in series [4], 6.24 against human Akt1 kinase and 7.52 against human Clk1 kinase. Also, the inhibition at 12.5 µM on human Akt1 kinase was 92.1%; on human Ack1 kinase it was 85.9%. Moreover, the solubility at 24 h in “physchem” (pH 2, aqueous buffer) is 110 to 120 µM (≈ 62.8 to 68.5 µg/mL); in “physchem” (pH 7.4, aqueous buffer), under 10 µM.

`O=C1Nc2ccc(C(=O)NCc3ccccc3)cc2/C1=C(/Nc1ccc(CN2CCCCC2)cc1)c1ccccc1` [Compound 20, (3Z)-N-benzyl-2-oxo-3-(phenyl{[4-(piperidin-1-ylmethyl)phenyl]amino}methylene)indoline-5-carboxamide]: the pEC50 in [1] was 8.00; in series [2], 7.70; in series [3], under 4.52; in series [5] it was 6.10. For the same compound, the results for the pIC50 (in [4]; on human Akt1 kinase; at human Clk1 kinase) were over 8.00, 6.04 and 8.00, respectively. The figures for the inhibition at 12.5 µM on human Akt1 kinase and at human Ack1 kinase were 91.6% and 72.7%, respectively. For the same compound, the solubility at 24 h was 110 to 120 µM (≈ 59.7 to 65.1 µg/mL) in “physchem” (pH 2, aqueous buffer) and under 10 µM in “physchem” (pH 7.4, aqueous buffer).

Regarding `COc1ccc([C@@H](C)NC(=O)c2ccc3c(c2)/C(=C(/Nc2ccc(CN4CCCCC4)cc2)c2ccccc2)C(=O)N3)cc1` [Compound 21, (3Z)-N-[(1R)-1-(4-methoxyphenyl)ethyl]-2-oxo-3-(phenyl{[4-(piperidin-1-ylmethyl)phenyl]amino}methylene)indoline-5-carboxamide], the pEC50 in series [1] is 6.49; in series [2], 6.39; in [3], under 4.52; in series [5] it was 5.28. The pIC50 in series [4] is 5.83; on human Akt1 kinase, 5.77; against human Clk1 kinase it was 7.70. In addition, the inhibition at 12.5 µM amounted to 78.2% on human Akt1 kinase and 87% at human Ack1 kinase. In addition, the solubility at 24 h in “physchem” (pH 2, aqueous buffer) is 100 to 110 µM (≈ 58.7 to 64.5 µg/mL); in “physchem” (pH 7.4, aqueous buffer) it was under 10 µM.

Take `COc1cccc([C@@H](C)NC(=O)c2ccc3c(c2)/C(=C(/Nc2ccc(CN4CCCCC4)cc2)c2ccccc2)C(=O)N3)c1` [Compound 22, (3Z)-N-[(1R)-1-(3-methoxyphenyl)ethyl]-2-oxo-3-(phenyl{[4-(piperidin-1-ylmethyl)phenyl]amino}methylene)indoline-5-carboxamide]: the pEC50 was 7.70 in series [1], 7.40 in [2], under 4.52 in series [3] and 5.97 in [5]. Moreover, the pIC50 in series [4] was over 8.00; on human Akt1 kinase, 6.96; against human Clk1 kinase, 7.70. For the same compound, the inhibition at 12.5 µM on human Akt1 kinase was found to be 88%; at human Ack1 kinase, 83.8%. Further, the solubility at 24 h was 110 to 120 µM (≈ 64.5 to 70.4 µg/mL) in “physchem” (pH 2, aqueous buffer) and under 10 µM in the series “physchem” (pH 7.4, aqueous buffer).
